Assay results from PubChem BioAssay (NCI).
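Where inhibition never reached the appropriate level, the endpoint shown equals the highest concentration tested. Otherwise, values were interpolated linearly from a five-concentration, 48-hour dose response in 96-well plates. Definition used: TGI = concentration required for complete inhibition of growth.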

Tests used:
Experiment in all cases: DTP human tumour cell line panel, 48 h
[1] = test system: XF 498 CNS
[2] = test system: TK-10 renal
[3] = test system: SW-620 colon
[4] = test system: CCRF-CEM leukemia
[5] = test system: DMS 114 small cell lung
[6] = test system: HOP-18 NSCLC
[7] = test system: SNB-78 CNS
[8] = test system: SF-268 CNS
[9] = test system: EKVX NSCLC
[10] = test system: NCI-H460 lung
[11] = test system: KM20L2 colon
[12] = test system: UACC-257 melanoma
[13] = test system: U251 CNS
[14] = test system: SF-539 CNS
[15] = test system: CAKI-1 renal
[16] = test system: HOP-92 NSCLC
[17] = test system: HL-60(TB) leukemia
[18] = test system: HCT-15 colon
[19] = test system: NCI-H23 lung
[20] = test system: HCC-2998 colon
[21] = test system: LXFL 529 NSCLC
[22] = test system: HCT-116 colon
[23] = test system: OVCAR-8 ovarian
[24] = test system: DMS 273 small cell lung
[25] = test system: 786-0 renal
[26] = test system: RPMI-8226 leukemia
[27] = test system: DLD-1 colon
[28] = test system: UACC-62 melanoma
[29] = test system: COLO 205 colon
[30] = test system: UO-31 renal
[31] = test system: OVCAR-5 ovarian
[32] = test system: ACHN renal
[33] = test system: OVCAR-3 ovarian
[34] = test system: MALME-3M melanoma
[35] = test system: SK-OV-3 ovarian
[36] = test system: A498 renal
[37] = test system: HOP-62 NSCLC
[38] = test system: NCI-H522 lung
[39] = test system: M19-MEL melanoma
[40] = test system: SK-MEL-28 melanoma
[41] = test system: HT29 colon
[42] = test system: K-562 leukemia
[43] = test system: MOLT-4 leukemia
[44] = test system: OVCAR-4 ovarian
[45] = test system: RXF-631 renal
[46] = test system: SNB-19 CNS
[47] = test system: SK-MEL-2 melanoma
[48] = test system: SF-295 CNS
[49] = test system: M14 melanoma
[50] = test system: KM12 colon
[51] = test system: LOX IMVI melanoma
[52] = test system: SN12C renal
[53] = test system: IGROV1 ovarian
[54] = test system: NCI-H226 lung
[55] = test system: A549 NSCLC
[56] = test system: RXF 393 renal
[57] = test system: SK-MEL-5 melanoma
[58] = test system: SR leukemia
[59] = test system: SNB-75 CNS

## CCOC(=O)C12CCCC1(O)N(NC(N)=O)C(C)=C2C(=O)OC (configuration not stated)
[1]
  TGI: > 100 µM
[2]
  TGI: > 100 µM
[3]
  TGI: > 100 µM
[4]
  TGI: > 100 µM
[5]
  TGI: > 100 µM
[6]
  TGI: > 100 µM
[7]
  TGI: > 100 µM
[8]
  TGI: > 100 µM
[9]
  TGI: > 100 µM
[10]
  TGI: > 100 µM
[11]
  TGI: > 100 µM
[12]
  TGI: > 100 µM
[13]
  TGI: > 100 µM
[14]
  TGI: > 100 µM
[15]
  TGI: > 100 µM
[16]
  TGI: > 100 µM
[17]
  TGI: > 100 µM
[18]
  TGI: > 100 µM
[19]
  TGI: > 100 µM
[20]
  TGI: > 100 µM
[21]
  TGI: > 100 µM
[22]
  TGI: > 100 µM
[23]
  TGI: > 100 µM
[24]
  TGI: > 100 µM
[25]
  TGI: > 100 µM
[26]
  TGI: > 100 µM
[27]
  TGI: > 100 µM
[28]
  TGI: > 100 µM
[29]
  TGI: > 100 µM
[30]
  TGI: > 100 µM
[31]
  TGI: > 100 µM
[32]
  TGI: > 100 µM
[33]
  TGI: > 100 µM
[34]
  TGI: > 100 µM
[35]
  TGI: > 100 µM
[36]
  TGI: > 100 µM
[37]
  TGI: > 100 µM
[38]
  TGI: > 100 µM
[39]
  TGI: > 100 µM
[40]
  TGI: > 100 µM
[41]
  TGI: > 100 µM
[42]
  TGI: > 100 µM
[43]
  TGI: > 100 µM
[44]
  TGI: > 100 µM
[45]
  TGI: > 100 µM
[46]
  TGI: > 100 µM
[47]
  TGI: > 100 µM
[48]
  TGI: > 100 µM
[49]
  TGI: > 100 µM
[50]
  TGI: > 100 µM
[51]
  TGI: > 100 µM
[52]
  TGI: > 100 µM
[53]
  TGI: > 100 µM
[54]
  TGI: > 100 µM
[55]
  TGI: > 100 µM

## Cc1ccc(C(=O)O)cc1NC(=O)c1cc(/C=C/c2ccccc2)[nH]c(=S)n1
[1]
  TGI: > 100 µM
[2]
  TGI: > 100 µM
[3]
  TGI: > 48.8 µM
[4]
  TGI: > 100 µM
[5]
  TGI: > 100 µM
[6]
  TGI: > 100 µM
[7]
  TGI: > 100 µM
[8]
  TGI: > 100 µM
[9]
  TGI: > 100 µM
[10]
  TGI: > 100 µM
[56]
  TGI: > 100 µM
[11]
  TGI: > 100 µM
[12]
  TGI: > 100 µM
[13]
  TGI: > 100 µM
[14]
  TGI: > 100 µM
[15]
  TGI: > 100 µM
[57]
  TGI: > 100 µM
[16]
  TGI: > 100 µM
[17]
  TGI: > 100 µM
[18]
  TGI: > 60.7 µM
[19]
  TGI: > 100 µM
[20]
  TGI: > 100 µM
[21]
  TGI: > 100 µM
[22]
  TGI: > 53 µM
[23]
  TGI: > 100 µM
[24]
  TGI: > 100 µM
[25]
  TGI: > 100 µM
[26]
  TGI: > 69.7 µM
[27]
  TGI: > 77.1 µM
[28]
  TGI: > 100 µM
[29]
  TGI: > 100 µM
[30]
  TGI: > 100 µM
[31]
  TGI: > 100 µM
[32]
  TGI: > 100 µM
[33]
  TGI: > 100 µM
[34]
  TGI: > 100 µM
[35]
  TGI: > 100 µM
[36]
  TGI: > 100 µM
[37]
  TGI: > 100 µM
[38]
  TGI: > 100 µM
[40]
  TGI: > 100 µM
[41]
  TGI: > 100 µM
[42]
  TGI: > 100 µM
[58]
  TGI: > 100 µM
[43]
  TGI: > 100 µM
[59]
  TGI: > 100 µM
[44]
  TGI: > 100 µM
[45]
  TGI: > 100 µM
[46]
  TGI: > 100 µM
[48]
  TGI: > 100 µM
[49]
  TGI: > 100 µM
[50]
  TGI: > 100 µM
[51]
  TGI: > 100 µM
[52]
  TGI: > 100 µM
[53]
  TGI: > 100 µM
[54]
  TGI: > 100 µM
[55]
  TGI: > 100 µM
